Source: patent US10463644B2, “Uses of sesquiterpene lactone compounds and their derivatives in drugs preparation” (ACCENDATECH, priority 2013, dated 2019)
Like-named read-outs stand apart in the source and are kept apart here.

Assays:
[1] = system: cancer stem cells; experiment: Survival rate of cancer stem cells after test compound is added (flow cytometry, Annexin V-FITC/PI, clinical specimen); assay type: cell-based, patient; conditions: Homo sapiens, 18 h
Description: (§1) Take fresh or cryopreserved clinical specimen (acute myelogenous leukemia (AML, marker is CD34^+/CD38^+), chronic myelogenous leukemia (CML, Ph+/CD34+/CXCR4+), chronic lymphocytic leukemia (CLL,CD133+/CD19−/CD38−), skin cancer (CD34+), breast cancer (CD44+/CD24−/ESA+), ovarian cancer (CD44+/CD117+), brain tumor (CD133+) prostate cancer (CD44+/CD24−), head-neck squamous cell carcinoma (CD44+), laryngeal cancer (CD133+), pancreatic cancer (ESA+/CD44+/CD24+), retinoblastoma (ABCG2/ALDH1), Children hepatoblastoma (CD34+/THY1+/c-kit+), liver cancer (CD133+), malignant melanoma (CD133+), colorectal cancer (EpCAM^high/CD44+), colon adenocarcinoma (CD44^high), glioma (ABCG-2/BCRP1), gastrointestinal tumor (ABCG-2/BCRP1), nasopharynx cancer (ABCG2), brain glioma (Dlk-1/Pref-1), gastric cancer (CD45+), lung adenocarcinoma (Sca-1/CD45-/Pecam-/CD34+), lung cancer (CD133+CD34+CD44+)) of patient. Take the acute myelogenous leukemia as the example, conduct density gradient centrifugation with Ficoll and take out the middle mononuclear cells, re-suspend it with serum-free IMDM after centrifuged. Adjust the concentration of cells into 1×10^6/mL and lay 24-well plate with 1 mL in each well, and then treat 18 hours with the compound to select with corresponding concentration. Collect the cells and centrifuge them at 1500 rps for 8 minutes, re-suspend the precipitation with […], mark the antibodies related to leukemia stem cell, avoid light to incubate 30 minutes at room temperature and then centrifuge it at 1500 rps, then wash away the unbound antibody CD34^+CD38^+. Re-suspend it with 100 μl 1× Binding Buffer and add respectively 5 μl Annexin V-FITC and PI, then avoid light to incubate 15 minutes before add 200 μl 1× Binding Buffer, then use flow cytometry to examine the marked apoptosis within one hour.

[2] = system: TNF-α secreted by synoviocyte; experiment: Content of TNF-α in culture supernatant of synoviocyte of RA model rats given test compound; assay type: in vivo; conditions: rat RA model, dose 30 mg/kg.2d; normal control 0.38 ± 0.027, NaCl 0.74 ± 0.098
Description: (§2) Take Compound 1-50 prepared as per the method according to the present invention and employ the method provided in Reference to prepare model, group drugs and prepare culture supernatant of rat synoviocyte.
(§3) Employ the method provided in Reference to investigate the effects of the test compounds on the synoviocyte to secrete TNF-α and PGE2. Employ the method provided in Reference to investigate the effects of the test compounds on the synoviocyte to secrete IL-1β.
(§4) The experimental data of the test compound 1-50 at a dose of 30 mg/kg.2d as well as the normal control and NaCl group are as follows: […]

[3] = system: PGE2 secreted by synoviocyte; experiment: Content of PGE2 in culture supernatant of synoviocyte of RA model rats given test compound; assay type: in vivo; conditions: rat RA model, dose 30 mg/kg.2d; normal control 8.34 ± 1.29, NaCl 32.44 ± 10.32
Description: as §2, §3, §4

[4] = system: cancer cells; experiment: Survival rate of cancer cells after test compound is added (flow cytometry, Annexin V-FITC/PI, clinical specimen); assay type: cell-based, patient; conditions: Homo sapiens, 18 h, read-out: Survival rate (%) All cells (Stem cells and ordinary cells)
Description: as §1

[5] = system: IL-1β secreted by synoviocyte; experiment: Content of IL-1β in culture supernatant of synoviocyte of RA model rats given test compound; assay type: in vivo; conditions: rat RA model, dose 30 mg/kg.2d; normal control 0.16 ± 0.034, NaCl 0.49 ± 0.136
Description: as §2, §3, §4

[6] = Head and neck squamous cell carcinomas

C=C1C(=O)O[C@@H]2[C@H]3C(C)=CC[C@@]34O[C@@]4(C)CC[C@@H]12 [Compound 50]
viability at 10 µM ([1]; AML): 45% | viability at 20 µM ([1]; AML): 36% | viability at 10 µM ([1]; Brain glioma): 63% | viability at 20 µM ([1]; Brain glioma): 47% | viability at 10 µM ([1]; Brain tumor): 62% | viability at 20 µM ([1]; Brain tumor): 54% | viability at 10 µM ([1]; Breast cancer): 64% | viability at 20 µM ([1]; Breast cancer): 52% | viability at 10 µM ([1]; CLL): 47% | viability at 20 µM ([1]; CLL): 36% | viability at 10 µM ([1]; CML): 57% | viability at 20 µM ([1]; CML): 46% | viability at 10 µM ([1]; Children hepatoblastoma): 42% | viability at 20 µM ([1]; Children hepatoblastoma): 34% | viability at 10 µM ([1]; Colon adenocarcinoma): 43% | viability at 20 µM ([1]; Colon adenocarcinoma): 35% | viability at 10 µM ([1]; Colorectal cancer): 64% | viability at 20 µM ([1]; Colorectal cancer): 55% | viability at 10 µM ([1]; Gastric cancer): 45% | viability at 20 µM ([1]; Gastric cancer): 37% | viability at 10 µM ([1]; Gastrointestinal tumor): 55% | viability at 20 µM ([1]; Gastrointestinal tumor): 44% | viability at 10 µM ([1]; Glioma): 62% | viability at 20 µM ([1]; Glioma): 45% | viability at 10 µM [1, 6]: 56% | viability at 20 µM [1, 6]: 47% | viability at 10 µM ([1]; Laryngeal cancer): 64% | viability at 20 µM ([1]; Laryngeal cancer): 53% | viability at 10 µM ([1]; Liver cancer): 53% | viability at 20 µM ([1]; Liver cancer): 46% | viability at 10 µM ([1]; Lung adenocarcinoma): 46% | viability at 20 µM ([1]; Lung adenocarcinoma): 36% | viability at 10 µM ([1]; Lung cancer): 43% | viability at 20 µM ([1]; Lung cancer): 33% | viability at 10 µM ([1]; Malignant melanoma): 64% | viability at 20 µM ([1]; Malignant melanoma): 54% | viability at 10 µM ([1]; Nasopharynx cancer): 44% | viability at 20 µM ([1]; Nasopharynx cancer): 37% | viability at 10 µM ([1]; Ovarian cancer): 62% | viability at 20 µM ([1]; Ovarian cancer): 55% | viability at 10 µM ([1]; Pancreatic cancer): 53% | viability at 20 µM ([1]; Pancreatic cancer): 43% | viability at 10 µM ([1]; Prostate cancer): 54% | viability at 20 µM ([1]; Prostate cancer): 41% | viability at 10 µM ([1]; Retinoblastoma): 54% | viability at 20 µM ([1]; Retinoblastoma): 44% | viability at 10 µM ([1]; Skin cancer): 57% | viability at 20 µM ([1]; Skin cancer): 43% | Content of TNF-α in culture supernatant of synoviocyte (x ± s) [2]: 0.52 ± 0.064 ng/mL | Content of PGE2 in culture supernatant of synoviocyte (x ± s) [3]: 19.83 ± 1.78 ng/mL | viability at 10 µM ([4]; AML): 57% | viability at 20 µM ([4]; AML): 47% | viability at 10 µM ([4]; Brain glioma): 74% | viability at 20 µM ([4]; Brain glioma): 58% | viability at 10 µM ([4]; Brain tumor): 72% | viability at 20 µM ([4]; Brain tumor): 63% | viability at 10 µM ([4]; Breast cancer): 75% | viability at 20 µM ([4]; Breast cancer): 65% | viability at 10 µM ([4]; CLL): 58% | viability at 20 µM ([4]; CLL): 47% | viability at 10 µM ([4]; CML): 64% | viability at 20 µM ([4]; CML): 58% | viability at 10 µM ([4]; Children hepatoblastoma): 55% | viability at 20 µM ([4]; Children hepatoblastoma): 47% | viability at 10 µM ([4]; Colon adenocarcinoma): 55% | viability at 20 µM ([4]; Colon adenocarcinoma): 49% | viability at 10 µM ([4]; Colorectal cancer): 76% | viability at 20 µM ([4]; Colorectal cancer): 66% | viability at 10 µM ([4]; Gastric cancer): 54% | viability at 20 µM ([4]; Gastric cancer): 48% | viability at 10 µM ([4]; Gastrointestinal tumor): 64% | viability at 20 µM ([4]; Gastrointestinal tumor): 53% | viability at 10 µM ([4]; Glioma): 74% | viability at 20 µM ([4]; Glioma): 56% | viability at 10 µM [4, 6]: 67% | viability at 20 µM [4, 6]: 58% | viability at 10 µM ([4]; Laryngeal cancer): 75% | viability at 20 µM ([4]; Laryngeal cancer): 64% | viability at 10 µM ([4]; Liver cancer): 66% | viability at 20 µM ([4]; Liver cancer): 54% | viability at 10 µM ([4]; Lung adenocarcinoma): 57% | viability at 20 µM ([4]; Lung adenocarcinoma): 47% | viability at 10 µM ([4]; Lung cancer): 54% | viability at 20 µM ([4]; Lung cancer): 47% | viability at 10 µM ([4]; Malignant melanoma): 82% | viability at 20 µM ([4]; Malignant melanoma): 66% | viability at 10 µM ([4]; Nasopharynx cancer): 54% | viability at 20 µM ([4]; Nasopharynx cancer): 48% | viability at 10 µM ([4]; Ovarian cancer): 77% | viability at 20 µM ([4]; Ovarian cancer): 67% | viability at 10 µM ([4]; Pancreatic cancer): 64% | viability at 20 µM ([4]; Pancreatic cancer): 49% | viability at 10 µM ([4]; Prostate cancer): 66% | viability at 20 µM ([4]; Prostate cancer): 54% | viability at 10 µM ([4]; Retinoblastoma): 65% | viability at 20 µM ([4]; Retinoblastoma): 53% | viability at 10 µM ([4]; Skin cancer): 66% | viability at 20 µM ([4]; Skin cancer): 58% | Content of IL-1β in culture supernatant of synoviocyte (x ± s) [5]: 0.34 ± 0.061 ng/mL
